Measurements from ChEMBL document CHEMBL3399944, “Synthesis and anticancer cell potential of steroidal 16,17-seco-16,17a-dinitriles: identification of a selective inhibitor of hormone-independent breast cancer cells” (Bioorg Med Chem, 2015).

Experiments:
HeLa = assay: Antiproliferative activity against human HeLa cells after 48 hrs by MTT assay; assay type: functional, cell-based
MDA-MB-231 [1] = assay: Antiproliferative activity against human MDA-MB-231 cells after 48 hrs by MTT assay; assay type: functional, cell-based; details: MDA-MB-231, 48 h
MCF7 [2] = assay: Antiproliferative activity against human MCF7 cells after 48 hrs by MTT assay; assay type: functional, cell-based; details: MCF7, 48 h
[3] = Antiproliferative activity against human PC3 cells after 48 hrs by MTT assay; assay type: functional, cell-based; details: PC-3, 48 h
MRC5 = assay: Antiproliferative activity against human MRC5 cells after 48 hrs by MTT assay; assay type: cell-based; details: MRC5, 48 h
MDA-MB-231 [4] = assay: Induction of apoptosis in human MDA-MB-231 cells at IC50 after 48 hrs by Giemsa staining-based light microscopy (reference value: 7%); assay type: functional
MCF7 [5] = assay: Antiproliferative activity against human MCF7 cells at 10 nM after 48 hrs by MTT assay; assay type: functional; details: MCF7, 48 h
MDA-MB-231 [6] = assay: Antiproliferative activity against human MDA-MB-231 cells at 10 nM after 48 hrs by MTT assay; assay type: functional; details: MDA-MB-231, 48 h

Compound | IC50 (HeLa) [µM] | IC50 (MDA-MB-231 [1]) [µM] | IC50 (MCF7 [2]) [µM] | IC50 [3] [µM] | IC50 (MRC5) [µM] | Activity (MDA-MB-231 [4]) [%] | inhibition at 0.01 µM (MCF7 [5]) [%] | inhibition at 0.01 µM (MDA-MB-231 [6]) [%]
C[C@]1(CC#N)CC[C@@H]2c3ccc(O)cc3CC[C@H]2[C@@H]1CC#N | 7.32 | 3.96 | 17 | 11.2 | > 100 | 11.1 |  | 
C[C@]1(CC#N)CC[C@H]2[C@@H](CC=C3C[C@@H](O)CC[C@@]32C)[C@@H]1CC#N | 2.15 | 34.8 | 30 | 19.1 | > 100 | 18 |  | 
C[C@]1(CC#N)CC[C@H]2[C@@H](CCC3=CC(=O)CC[C@@]32C)[C@@H]1CC#N | 5.73 | 15.5 | 15 | 8.27 | > 100 | 15.9 |  | 
C[C@]1(CC#N)CC[C@H]2[C@@H](CCC3=C(O)C(=O)CC[C@@]32C)[C@@H]1CC#N | 14.7 | 39.6 | 57 | 8.69 | > 100 | 11 |  | 
C[C@]1(CC#N)CC[C@H]2[C@@H](CCC3=CC(=O)C=C[C@@]32C)[C@@H]1CC#N | 12.5 | 0.11 | 0.52 | 70.9 | > 100 | 14.1 | 61 | 69
COc1cccc2c1C(=O)c1c(O)c3c(c(O)c1C2=O)C[C@@](O)(C(=O)CO)C[C@@H]3O[C@H]1C[C@H](N)[C@H](O)[C@H](C)O1 [DOXORUBICIN] |  |  | 0.75 | 95.6 |  | 11 |  | 
C[C@]12CCC(=O)C(O)=C1CC[C@@H]1[C@@H]2CC[C@]2(C)C(=O)CC[C@@H]12 [FORMESTANE] | 1.9 | 53.3 | > 100 | 45.6 | > 100 | 11 |  | 
